Values joined by “and” are separate entries in the source; they are usually repeats but may differ in a detail not shown here. Equal entries are not always repeated.
Assays:
HEK/OVA-B16 cells = assay: Staining and fluorescence imaging of living cells; format: cell-based; details: for staining pattern in cells: HEK/OVA-B16 cells; for uptake by living cells: dyes applied for up to 1 hour at 10µM; for fluorescence emission spectrum in situ, peak: excited at 405 nm
[1] = Photoluminescence emission spectra in different solvents; format: physicochemical
Experimental: The photo-physical properties of these dye molecules with stilbene-like motifs were investigated in different solvents in order to determine their maximum absorption and emission wavelengths (Figures 6A to 6C). The compounds were dissolved in Acetonitrile (CH3CN), chloroform (CHCl3), c-hexane (c-HEX), dichloromethane (DCM), dimethylformamide (DMF), methanol (MeOH), tetrahydrofuran (THF), and toluene (Tol).
The highest emission intensity was detected when THF and c-Hex were used as solvents, with lesser intensity recorded for DMF and Tol. PyPe emits light in the blue range, with emission peaks between 380nm and 550nm. Absolute intensities of up to 3.5 x 10^6 were recorded for PyPe in c-Hex.
The photoluminescence spectra of PyPeBr upon excitation at 440nm when dissolved in CH3CN, CHCl3, DCM, DMF, MeOH, or Tol, and upon excitation at 370 nm when dissolved in c-Hex or THF is shown in Figure 4B. PyPeBr has a relatively broad emission spectrum, which depends on the solvent used. The emission spectrum of PyPeBr can be as broad to cover most of the visible range. This broad emission range offers the possibility to select a desired wavelength for imaging by applying appropriate filters.
PyPh emits light in the blue range, ranging from 400nm to 500nm. […] The loss in stability is due to the self-photobleaching reactions, which are induced by irradiation.
(§1) ^1H-NMR was recorded on 400 MHz (Brucker DRX 400) and ^13C-NMR spectra were recorded on Bruker 100 MHz spectrometer at room temperature with d6-DMSO as a solvent and tetramethylsilane (TMS) as the internal standard. Mass spectra were performed on the Bruker-ION Trap Ms. Fluorescence spectra were measured on an Edinburgh Instruments FS5 Spectrofluorometer. Absorption spectra were determined on a Perkin Elmer UV/VIS Lambda 2 (190-1100 nm) spectrophotometer. IR spectra were recorded on a Perking Elmer FT-IR spectrometer Frontier 4000-400 cm^-1. Single crystal structures were obtained from a STOE-IPDS II (Single crystal diffractometer λ-Mo), solved and refined using SHELXT software package.

[2] = Photostability: UV-visible spectra of 5µM solutions after continuous irradiation with 400 nm light (Xenon-arc lamp, 300 Watt); format: physicochemical; details: for stability of the absorbance under irradiation: up to 24h
Experimental: To examine the stability of the absorbance of PyPeBr and PyPe, 5µM solution (2.5 mL) of the respective compounds were prepared using different solvents. The compounds were then irradiated with 400nm using a Xenon-arc lamp at 300 Watt (25 nm FWHM). Following predefined irradiation periods, indicated in Figures 6A to 6H, UV-visible spectra were collected to monitor the stability of PyPeBr and PyPe in different solvents.

[3] = Optical properties in different solvents: emission and absorption maxima, lifetime, quantum yield; format: physicochemical; details: for Lifetime, τavr.: multiexponential lifetime represented with τavr.; for Φf: quantum yield determined using integrating sphere
Experimental: as §1

[4] = test system: melanoma OVA-B16 cells line; assay: MTT cytotoxicity assay; format: cell-based
Experimental: To this end, cytotoxicity tests using the MTT assay, a standard colorimetric assay for assessing cell metabolic activity known to the person skilled in the art, on melanoma OVA-B16 cells line were performed. […] Cell growth of OVA-16 cells was unaffected after 1h and 24h of exposure of PyPeBr at this concentration.

[5] = Light-induced E/Z isomerisation and photostationary state (X-ray of Zn complex, NMR, UV-Vis); format: physicochemical; details: similar irradiation conditions, NMR and UV-visible experiments
Source text: Evidence of the efficient photostationary state of PyPe, was provided by exposing a coordination metal complex of E-PyPe with Zn^2+, [Zn(E-PyPe)2Cl2]·2DCM, comprising two PyPe. X-Ray analysis confirmed that prior to irradiation both PyPe in the complex were primarily in E-configuration when coordinated to the Zn^2+ metal centre.
This experiment provided evidence that the light-induced E/Z-configurational change in PyPe reaches a photostationary equilibrium of E/Z-PyPe.
This was achieved by reacting allyl bromide at 40 °C in Acetonitril (MeCN) as described below to produce PyPeBr.

Compound: C(=C\c1ccc2ccc3cccc4ccc1c2c34)/c1ccncc1 [PyPe, (E)-4-(2-(pyren-1-yl)vinyl)pyridine, reference compound]
- morphological signs of cell toxicity (HEK/OVA-B16 cells; 10µM): No morphological signs of cell toxicity
- staining pattern in cells (HEK/OVA-B16 cells): cytosolic staining and subcellular partitioning
- uptake by living cells (HEK/OVA-B16 cells): readily taken up
- fluorescence emission spectrum in situ, peak (HEK/OVA-B16 cells): 465 nm
- absolute emission intensities ([1]; in c-Hex, excitation at 370nm): up to 3.5 x 10^6
- stability of the absorbance under irradiation ([2]; 5µM in DCM): an early bleaching effect could be detected within the first 15 minutes of irradiation
- stability of the absorbance under irradiation ([2]; 5µM in MeOH): an early bleaching effect could be detected within the first 15 minutes of irradiation
- Knr ([3]; solvent CH3CN): 0.38 10^8 s^-1
- kr ([3]; solvent CH3CN): 4.44 10^8 s^-1
- Lifetime, τavr. ([3]; solvent CH3CN): 2.07 ns
- Φf ([3]; solvent CH3CN): 0.92
- λ^em max ([3]; solvent CH3CN, λex = 405 nm): 616 nm
- Knr ([3]; solvent CHCl3): 0.66 10^8 s^-1
- kr ([3]; solvent CHCl3): 5.44 10^8 s^-1
- Lifetime, τavr. ([3]; solvent CHCl3): 1.65 ns
- Φf ([3]; solvent CHCl3): 0.89
- λ^em max ([3]; solvent CHCl3, λex = 405 nm): 607 nm
- Knr ([3]; solvent DCM): 2.38 10^8 s^-1
- kr ([3]; solvent DCM): 3.43 10^8 s^-1
- Lifetime, τavr. ([3]; solvent DCM): 1.72 ns
- Φf ([3]; solvent DCM): 0.59
- λ^em max ([3]; solvent DCM, λex = 405 nm): 623 nm
- Knr ([3]; solvent DMF): 0.26 10^8 s^-1
- kr ([3]; solvent DMF): 2.60 10^8 s^-1
- Lifetime, τavr. ([3]; solvent DMF): 3.5 ns
- Φf ([3]; solvent DMF): 0.91
- Knr ([3]; solvent MeOH): 0.65 10^8 s^-1
- kr ([3]; solvent MeOH): 3.19 10^8 s^-1
- Lifetime, τavr. ([3]; solvent MeOH): 2.6 ns
- Φf ([3]; solvent MeOH): 0.83
- λ^em max ([3]; solvent MeOH, λex = 405 nm): 611 nm
- Knr ([3]; solvent THF): 2.17 10^8 s^-1
- kr ([3]; solvent THF): 2.26 10^8 s^-1
- Lifetime, τavr. ([3]; solvent THF): 2.26 ns
- Φf ([3]; solvent THF): 0.51
- λ^em max ([3]; solvent THF, λex = 405 nm): 613 nm
- Knr ([3]; solvent Toluene): 0.53 10^8 s^-1
- kr ([3]; solvent Toluene): 3.91 10^8 s^-1
- Lifetime, τavr. ([3]; solvent Toluene): 2.25 ns
- Φf ([3]; solvent Toluene): 0.88
- λ^em max ([3]; solvent Toluene, λex = 405 nm): 603 nm
- Knr ([3]; solvent c-Hex): 0.47 10^8 s^-1
- kr ([3]; solvent c-Hex): 0.84 10^8 s^-1
- Lifetime, τavr. ([3]; solvent c-Hex): 7.58 ns
- Φf ([3]; solvent c-Hex): 0.64

Compound: C=CC[n+]1ccc(/C=C/c2ccc3ccc4cccc5ccc2c3c45)cc1.[Br-] [PyPeBr, (E)-1-allyl-4-(2-(pyren-1-yl)vinyl)pyridinium bromide]
- morphological signs of cell toxicity (HEK/OVA-B16 cells; 10µM): cytosol structure changes were observed
- morphological signs of cell toxicity (HEK/OVA-B16 cells; 50µM): cells became round and started to detach
- staining pattern in cells (HEK/OVA-B16 cells): stained the cytoplasm
- uptake by living cells (HEK/OVA-B16 cells): readily taken up
- fluorescence emission spectrum in situ, peak (HEK/OVA-B16 cells): 565 nm
- highest emission intensity ([1]; dissolved in DMF, excitation at 440nm): over 8.5 x 10^6
- emission peaks ([1]; very broad emission range, listed as General Formula P1.1): 405 nm and 465 nm and 565 nm
- stability of the absorbance under irradiation ([2]; 5µM in MeOH): only a minor decrease in absorbance after 15 minutes of irradiation but no further significant increase over a 24h irradiation period
- capacity to absorb light ranging from 370 nm to 500 nm under irradiation ([2]; 5µM in ultra-pure water (MilliQ purification), 24h): remained substantially unchanged over a 24h irradiation period
- deterioration in cell activity ([4]; 50 µM in cell buffered water or water/buffer/DMSO mixtures): minor or non-visible signs of deterioration in cell activity
- cell growth ([4]; 50 µM, after 1h and 24h of exposure): unaffected
- rate of E/Z-isomerization [5]: substantially faster than in PyPe
- Knr ([3]; solvent CH3CN): 3.15 10^8 s^-1
- kr ([3]; solvent CH3CN): 1.05 10^8 s^-1
- λ^em max ([3]; solvent CH3CN, Table 2, excitation not given): 621 nm
- Lifetime, τavr. ([3]; solvent CH3CN): 2.38 ns
- Φf ([3]; solvent CH3CN): 0.25
- Knr ([3]; solvent CHCl3): 0.06 10^8 s^-1
- kr ([3]; solvent CHCl3): 6.27 10^8 s^-1
- λ^em max ([3]; solvent CHCl3, Table 2, excitation not given): 609 nm
- Lifetime, τavr. ([3]; solvent CHCl3): 1.58 ns
- Φf ([3]; solvent CHCl3): 0.99
- Knr ([3]; solvent DCM): 1.87 10^8 s^-1
- kr ([3]; solvent DCM): 0.36 10^8 s^-1
- λ^abs max ([3]; solvent DCM): 492 nm
- λ^em max ([3]; solvent DCM, Table 2, excitation not given): 622 nm
- Lifetime, τavr. ([3]; solvent DCM): 4.5 ns
- Φf ([3]; solvent DCM): 0.16
- Knr ([3]; solvent DMF): 1.79 10^8 s^-1
- kr ([3]; solvent DMF): 2.18 10^8 s^-1
- Lifetime, τavr. ([3]; solvent DMF): 2.52 ns
- Φf ([3]; solvent DMF): 0.55
- Knr ([3]; solvent MeOH): 1.33 10^8 s^-1
- kr ([3]; solvent MeOH): 3.79 10^8 s^-1
- λ^em max ([3]; solvent MeOH, Table 2, excitation not given): 614 nm
- Lifetime, τavr. ([3]; solvent MeOH): 1.95 ns
- Φf ([3]; solvent MeOH): 0.74
- Knr ([3]; solvent THF): 3.08 10^8 s^-1
- kr ([3]; solvent THF): 0.06 10^8 s^-1
- λ^abs max ([3]; solvent THF): 447 nm
- λ^em max ([3]; solvent THF, Table 2, excitation not given): 617 nm
- Lifetime, τavr. ([3]; solvent THF): 3.18 ns
- Φf ([3]; solvent THF): 0.02
- Knr ([3]; solvent Toluene): 4.21 10^8 s^-1
- kr ([3]; solvent Toluene): 0.04 10^8 s^-1
- λ^abs max ([3]; solvent Toluene): 455 nm
- λ^em max ([3]; solvent Toluene, Table 2, excitation not given): 606 nm
- Lifetime, τavr. ([3]; solvent Toluene): 2.35 ns
- Φf ([3]; solvent Toluene): 0.01
- Knr ([3]; solvent c-Hex): 4.69 10^8 s^-1
- kr ([3]; solvent c-Hex): 0.10 10^8 s^-1
- λ^abs max ([3]; solvent c-Hex): 370 nm
- Lifetime, τavr. ([3]; solvent c-Hex): 2.09 ns
- Φf ([3]; solvent c-Hex): 0.02
- solubility in water (Solubility): highly soluble in water

Compound: C(=C\c1ccc2ccc3cccc4ccc1c2c34)/c1ccccc1 [PyPh, (E)-1-styrylpyrene]
- morphological signs of cell toxicity (HEK/OVA-B16 cells; 10µM): No morphological signs of cell toxicity
- uptake by living cells (HEK/OVA-B16 cells): readily taken up
- fluorescence emission spectrum in situ, peak (HEK/OVA-B16 cells): 450 nm
- highest emission intensity, factor less than optimal emission intensities of PyPeBr ([1]; excitation at 370nm): ~1000
- stability of the absorbance under irradiation ([2]; 5µM in DCM): Comparable results
- stability of the absorbance under irradiation ([2]; 5µM in MeCN): gradually decreases over a 24h irradiation period, with a significant drop detected as early as after 15 mins of irradiation
- stability of the absorbance under irradiation ([2]; 5µM in MeOH): gradually decreases over a 24h irradiation period, with a significant drop detected as early as after 15 mins of irradiation

Compound: Cascade Blue
- irradiation time to complete photobleaching ([2]; 5µM in ultra-pure water (Milli Q purification)): ≤ 8 h

Reference: EP4534610A1, “FLUOROPHORE COMPOUNDS AND PRODUCTION THEREOF” (Université Fribourg, priority 2023, dated 2025)
